In patent publication US7115724B2, “Murine genomic polynucleotide sequence encoding a G-protein coupled receptor and methods of use therefor” (priority 2001, dated 2006):
Where two headings read alike, the source gives them in different places.

Key:
mouse P2T receptor = molecular target: T1, mouse P2T receptor (Mus musculus, UniProt Q9CPV9); test: Yeast cell-based assay of mouse P2T receptor agonist activation (β-galactosidase reporter); settings: for rank order of potency of agonist stimulation of the mouse P2T receptor: yeast assay (FIG. 2)
T1 construct: Oligonucleotides corresponding to the 5′ and 3′ ends of the predicted protein coding region were used to amplify a fragment; expressed in transfected cells; host or cells: Saccharomyces cerevisiae MPY578 variant expressing a Gpa1-Gαt chimera, with pMP344 (p426GPD backbone) and the FUS1-LacZ reporter pMP283
T1 sequence (Q9CPV9 whole entry, the tested form may be a part): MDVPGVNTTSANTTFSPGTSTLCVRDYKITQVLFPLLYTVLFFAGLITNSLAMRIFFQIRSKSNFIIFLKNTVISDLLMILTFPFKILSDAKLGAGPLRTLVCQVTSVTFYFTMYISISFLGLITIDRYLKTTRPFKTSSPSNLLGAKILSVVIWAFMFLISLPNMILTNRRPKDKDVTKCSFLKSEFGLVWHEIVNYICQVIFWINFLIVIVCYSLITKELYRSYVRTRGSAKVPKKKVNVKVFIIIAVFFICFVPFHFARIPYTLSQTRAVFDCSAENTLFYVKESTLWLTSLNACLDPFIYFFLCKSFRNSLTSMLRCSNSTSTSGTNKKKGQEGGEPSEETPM
Description: In order to facilitate coupling of the P2T receptor to G protein, MPY578 variant cells express chimeric G alpha proteins coupled to the mating signal transduction pathway. The chimeric constructs are expressed from the GPA1 locus and are composed of Gpa1 sequences in which the 5 C-terminal amino acids have been replaced with those of all the mammalian Gα proteins. A multicopy FUS1-LacZ reporter gene plasmid, pMP283, was introduced into P2T receptor-containing cells and selected on media lacking trp and ura. The resulting yeast strains were used for further analysis.
MPY578 cells that express Gpa1-Gαt chimeric G alpha protein and containing pMP344 and pMP283 were diluted in assay medium (SCD-ura-trp, pH 6.8, 25 mM PIPES, 1 mM 3-aminotriazole) dispensed (5×10^6/ml, 200 μl/well) to the wells of 96-well microtiter dishes containing purinergic ligands. The plates were incubated with shaking (600 rpm) at 30° C. for 3 hours. Samples (25 μl) were transferred to Wallac B & W isoplates for β-galactosidase assay. An equal volume of GAL-SCREEN lysis and chemiluminescent β-galactosidase assay mixture was added. The plates were incubated for 30 min at 30° C. and light emission measured using a Wallac Victor II. Assays were conducted in quadruplicate and results were plotted using GraphPad Prizm.

mouse P2Y12 = molecular target: T2, mouse P2Y12 (Mus musculus, UniProt Q9CPV9); test: Agonist-induced release of intracellular calcium (FLIPR) in NIH3T3 cells expressing mouse P2Y12 and chimeric Gαq/i3; assay type: cell-based; settings: for rank order of potency of agonist stimulation of the mouse P2Y12 receptor in FLIPR: NIH3T3 Gαq/i3 cells (FIG. 4)
T2 construct: expressed in transfected cells; host or cells: NIH3T3 cells stably transfected with pCDNA-Gαq/i3 and pCDNA3.1-mP2Y12
T2 sequence (Q9CPV9 whole entry): as the sequence (Q9CPV9 whole entry, the tested form may be a part) above
Method: Mammalian cell expression and measurement of intracellular calcium. NIH3T3 cells were stably transfected with pCDNA-Gαq/i3 by electroporation and cultured in the presence of 800 μg/ml neomycin. The NIH3T3 Gαq/i3 line was subsequently stably transfected with pCDNA3.1-mP2Y12 by electroporation and cultured in the presence of 800 μg/ml neomycin and 400 μg/ml hygromycin. Cells were plated without selection and grown overnight at 37° C. The cells were washed with Hank's balanced salt solution without phenol red plus 20 mM HEPES, 2.5 mM probenecid, pH 7.4 and loaded with wash solution plus 5 μM Fluo-4, 0.04% pluronic acid and 1% fetal bovine serum for 1 hour at 37° C. After removing the dye solution and washed with wash buffer, agonists were added and analyzed using the FLIPR (PE Biosystems) to measure accumulation of intracellular calcium in response to compound treatments.
In published reports, Xenopus oocytes injected with the human P2Y12 receptor cRNA and coupled to stimulation of coinjected Kir3.1/Kir3.2 inwardly rectifying K+ currents, the EC50 was 300 nM (Hollopeter, 2001). […] The rank orders of potency of agonist stimulation of the mouse P2Y12 receptor in FLIPR (2MeSADP>ADP=ADPβS>ATPγS) agree well with reported values for the human P2Y12 receptor measured in FLIPR (2MeSADP=2MeSATP>ADP=ADPβS>2CIATP>ATPγS) and in adenylyl cyclase inhibition assays (2MeSATP>2MeSADP>ADP>ATPγS>ADPβS>2CIATP) (Zhang, 2001).

human P2Y12 receptor [1] = molecular target: T3, human P2Y12 receptor (Homo sapiens, UniProt Q9H244); settings: Zhang et al., 2001, cited from earlier work; for rank order of potency, human P2T (P2Y12) receptor in adenylyl cyclase inhibition assays: reported values
T3 sequence (Q9H244 whole entry): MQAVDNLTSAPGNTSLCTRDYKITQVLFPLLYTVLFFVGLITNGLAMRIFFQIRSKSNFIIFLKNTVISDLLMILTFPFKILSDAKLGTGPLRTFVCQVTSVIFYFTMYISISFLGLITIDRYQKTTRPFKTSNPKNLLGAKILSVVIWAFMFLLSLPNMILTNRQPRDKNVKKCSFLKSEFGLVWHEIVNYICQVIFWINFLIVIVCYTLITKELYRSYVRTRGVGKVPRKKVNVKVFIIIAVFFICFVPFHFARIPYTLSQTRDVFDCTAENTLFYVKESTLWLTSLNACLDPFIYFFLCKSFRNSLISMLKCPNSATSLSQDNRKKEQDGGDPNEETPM

human P2Y12 receptor [2] = molecular target: T3, human P2Y12 receptor; set-up: host or cells: NIH3T3 cells with a chimeric Gq/i3 construct (FLIPR); settings: cited from earlier work; for rank order of potency, human P2T (P2Y12) receptor measured in FLIPR: reported values, Zhang et al., 2001
human P2Y12 receptor [3] = molecular target: T3, human P2Y12 receptor; settings: Xenopus oocytes injected with P2T (human P2Y12) receptor cRNA; Hollopeter et al., 2001; read-out: EC50, stimulation of Kir3.1/Kir3.2 inwardly rectifying K+ currents; cited from earlier work

SMILES	rank order of potency of agonist stimulation of the mouse P2T receptor (mouse P2T receptor)	rank order of potency of agonist stimulation of the mouse P2Y12 receptor in FLIPR (mouse P2Y12)	rank order of potency, human P2T (P2Y12) receptor in adenylyl cyclase inhibition assays (human P2Y12 receptor [1])	rank order of potency, human P2T (P2Y12) receptor measured in FLIPR (human P2Y12 receptor [2])	EC50 (mouse P2T receptor; MPY578 yeast cells, β-galactosidase reporter, read-out: EC50 for ADP stimulation of the mouse P2T assayed in yeast)	EC50 (mouse P2Y12; FLIPR, NIH3T3 Gαq/i3 cells, read-out: EC50 for ADP stimulation of the mouse P2Y12 dependent release of intracellular calcium)	EC50 (human P2Y12 receptor [3])	EC50 (human P2Y12 receptor [1]; read-out: EC50, ADP dependent inhibition of cAMP accumulation)	EC50 (human P2Y12 receptor [2]; NIH3T3 cells, receptor with chimeric Gq construct, literature value, read-out: EC50 measured by FLIPR)
Nc1ncnc2c1ncn2[C@@H]1O[C@H](COP(=O)(O)OP(O)(O)=S)[C@@H](O)[C@H]1O [ADPβS]	2MeSADP>2MeSATP>ADP=ADPβS>ATPγS>2CIATP	2MeSADP>ADP=ADPβS>ATPγS	2MeSATP>2MeSADP>ADP>ATPγS>ADPβS>2CIATP	2MeSADP=2MeSATP>ADP =ADPβS>2CIATP>ATPγS					
Nc1ncnc2c1ncn2[C@@H]1O[C@H](COP(=O)(O)OP(=O)(O)OP(O)(O)=S)[C@@H](O)[C@H]1O [ATPγS]	2MeSADP>2MeSATP>ADP=ADPβS>ATPγS>2CIATP	2MeSADP>ADP=ADPβS>ATPγS	2MeSATP>2MeSADP>ADP>ATPγS>ADPβS>2CIATP	2MeSADP=2MeSATP>ADP =ADPβS>2CIATP>ATPγS					
CSc1nc(N)c2ncn([C@@H]3O[C@H](COP(=O)(O)OP(=O)(O)OP(=O)(O)O)[C@@H](O)[C@H]3O)c2n1 [2MeSATP]	2MeSADP>2MeSATP>ADP=ADPβS>ATPγS>2CIATP		2MeSATP>2MeSADP>ADP>ATPγS>ADPβS>2CIATP	2MeSADP=2MeSATP>ADP =ADPβS>2CIATP>ATPγS					
Nc1nc(Cl)nc2c1ncn2[C@@H]1O[C@H](COP(=O)(O)OP(=O)(O)OP(=O)(O)O)[C@@H](O)[C@H]1O [2CIATP]	2MeSADP>2MeSATP>ADP=ADPβS>ATPγS>2CIATP		2MeSATP>2MeSADP>ADP>ATPγS>ADPβS>2CIATP	2MeSADP=2MeSATP>ADP =ADPβS>2CIATP>ATPγS					
CSc1nc(N)c2ncn([C@@H]3O[C@H](COP(=O)(O)OP(=O)(O)O)[C@@H](O)[C@H]3O)c2n1 [2MeSADP]	2MeSADP>2MeSATP>ADP=ADPβS>ATPγS>2CIATP	2MeSADP>ADP=ADPβS>ATPγS	2MeSATP>2MeSADP>ADP>ATPγS>ADPβS>2CIATP	2MeSADP=2MeSATP>ADP =ADPβS>2CIATP>ATPγS					
Nc1ncnc2c1ncn2[C@@H]1O[C@H](COP(=O)(O)OP(=O)(O)O)[C@@H](O)[C@H]1O [ADP]	2MeSADP>2MeSATP>ADP=ADPβS>ATPγS>2CIATP	2MeSADP>ADP=ADPβS>ATPγS	2MeSATP>2MeSADP>ADP>ATPγS>ADPβS>2CIATP	2MeSADP=2MeSATP>ADP =ADPβS>2CIATP>ATPγS	256 nM	27 nM	300 nM	61 nM	74 nM
